Measurements taken from article PMC8587756, “Spirostanol Saponins from Flowers of Allium Porrum and Related Compounds Indicating Cytotoxic Activity and Affecting Nitric Oxide Production Inhibitory Effect in Peritoneal Macrophages” (Molecules, 2021).
pIC50: −log10 of the molar value. Like-named read-outs stand apart in the source and are kept apart here.

Legend:
[1] = tested on: murine leukemia cells P388; set-up: method as in PMID 9836426; settings: cancer murine leukemia cells P388; cited from earlier work
mouse peritoneal cells = assay: Cell viability / cytotoxicity, LDH assay in mouse peritoneal cells; assay type: cell-based
Procedure: (§1) Biological effects of studied compounds were evaluated in vitro, using mouse (C57BL6, Charles River Deutschland, Sulzfeld, Germany) peritoneal cells. Animals, killed by cervical dislocation, were i.p. injected with 8 mL of sterile saline. Pooled peritoneal cells collected from mice (n = 4–6 in individual experiments) were washed, re-suspended in culture medium, and seeded into 96-well round-bottom microplates (Costar, Corning, NY, USA) in 100-μL volumes, 2 × 10^5 cells/well. All experimental variants were run in duplicate. […] Cultures were maintained at 37 °C, 5% CO2 in humidified incubator (Sanyo Electric Biomedical, Osaka, Japan).
(§2) Viability of cells was analysed using the LDH (lactate dehydrogenase) assay. It is based on the determination of lactate dehydrogenase activity released from the cytosol of damaged cells into cell supernatant. The supernatants were harvested at the interval of 22 h of culture, diluted 1:1, and mixed with an aliquot of the LDH kit (Sigma-Aldrich, St. Louis, MO, USA). After 30-min incubation in the dark at ambient temperature, the reaction was stopped with 2 N HCl. […] Triton (1%) was used to induce 100% cell death. All control and experimental variants were run in quadruplicate.

[2] = tested on: NO production in mouse peritoneal cells; assay: Nitric oxide production induced by LPS and IFN-γ in mouse peritoneal cells (Griess reagent); assay type: cell-based; settings: for pIC50: LPS 0.1 ng/mL + IFN-γ 5 ng/mL, nitrites at 24 h, read-out: Nitric Oxide, IC50 (95% Limits of Confidence); for effect on production of NO (in words): LPS + IFN-γ, 24 h, Figure 3B; for inhibitory effects (in words): tested up to 25 µM
Procedure: Biological effects of studied compounds were evaluated in vitro, using mouse (C57BL6, Charles River Deutschland, Sulzfeld, Germany) peritoneal cells. Animals, killed by cervical dislocation, were i.p. injected with 8 mL of sterile saline. Pooled peritoneal cells collected from mice (n = 4–6 in individual experiments) were washed, re-suspended in culture medium, and seeded into 96-well round-bottom microplates (Costar, Corning, NY, USA) in 100-μL volumes, 2 × 10^5 cells/well. All experimental variants were run in duplicate. Complete RPMI-1640 culture medium (Sigma-Aldrich, St. Louis, MO, USA) contained 10% heat-inactivated foetal bovine serum, 2 mM L-glutamine, 50 μg/mL gentamicin, and 5 × 10^−5 M 2-mercaptoethanol (all Sigma-Aldrich). Cultures were maintained at 37 °C, 5% CO2 in humidified incubator (Sanyo Electric Biomedical, Osaka, Japan). The Institution Animal Ethics Committee (No. 13/2006) approved the animal welfare and all experimental procedures.
High output NO production was induced by mixture of lipopolysaccharide (LPS from E. coli 0111:B4, 0.1 ng/mL; Sigma) and murine recombinant interferon-γ (IFN-γ, 5 ng/mL; R&D Systems, Minneapolis, MN, USA) in mouse peritoneal cells. Tested compounds were applied concomitantly with these priming stimuli. The concentration of nitrites in supernatants of cells was assayed at the interval of 24 h. It was detected in individual, cell-free samples (50 μL) incubated 5 min at ambient temperature with an aliquot of a Griess reagent (1% sulphanilamide/0.1% naphtylendiamine/2.5% H3PO4). The absorbance at 540 nm was recorded using a microplate spectrophotometer (Tecan, Grödig, Austria). A nitrite calibration curve was used to convert absorbance to μM nitrite.
Estimates of 50% inhibitory concentrations of compounds (IC50, and CC50), correlation analysis, and graphical presentation of data were done using the Prism program (GraphPad Software, San Diego, CA, USA).

[3] = Cell viability / cytotoxicity, LDH assay in mouse peritoneal cells; assay type: cell-based
Procedure: as §1, §2

[4] = tested on: RAW 246.7 macrophages and lymphocytes; set-up: method as in PMID 26329920; settings: different concentrations, 72 h, MTT assay; cited from earlier work
[5] = tested on: murine monocyte/macrophage cell line J-774; set-up: method as in PMID 9358643; settings: 24 h, MTT assay; cited from earlier work
[6] = mouse peritoneal cells, LDH assay, 24 h, Figure 3A
[7] = C57BL6, mouse peritoneal cells, LDH assay, cultured 24 h (supernatants harvested at 22 h), read-out: Cytotoxicity CC50 (95% Limits of Confidence)

Compound | concentration at onset of cell viability decline (mouse peritoneal cells; [6]) | pIC50 [2] | effect on production of NO (in words) [2] | cytotoxic effects in model immune cells (in words) (mouse peritoneal cells) | CC50 at 22 h ([3]; C57BL6, mouse) [µM] | other results
C[C@@H]1CC[C@@]2(OC1)O[C@H]1C[C@H]3[C@@H]4CC=C5C[C@@H](O[C@@H]6O[C@H](CO)[C@@H](O[C@@H]7O[C@@H](C)[C@H](O)[C@@H](O)[C@H]7O)[C@H](O)[C@H]6O[C@@H]6O[C@@H](C)[C@H](O)[C@@H](O)[C@H]6O)CC[C@]5(C)[C@H]4CC[C@]3(C)[C@H]1[C@@H]2C [dioscin, reference compound] |  |  |  |  |  | cytotoxicity IC50 [1]: 0.092 µg/mL
tomatonin [Compound 6, reference compound] | approximately 4 µM | 5.14 | inhibited the production of NO |  |  | cytotoxic effects in model immune cells (in words) (mouse peritoneal cells; [6]): strong cytotoxic effects; CC50 (mouse peritoneal cells; mouse peritoneal cells, LDH assay, cultured 24 h (supernatants harvested at 22 h), read-out: Cytotoxicity CC50 (95% Limits of Confidence)): 9.9 µM
C[C@@H]1CC[C@@]2(OC1)O[C@H]1[C@@H](O)[C@H]3[C@@H]4CC[C@H]5C[C@@H](O[C@@H]6O[C@H](CO)[C@H](O[C@@H]7O[C@H](CO)[C@@H](O)[C@H](O[C@@H]8OC[C@@H](O)[C@H](O)[C@H]8O)[C@H]7O[C@@H]7O[C@H](CO)[C@H](O)[C@H](O[C@@H]8O[C@H](CO)[C@@H](O)[C@H](O)[C@H]8O)[C@H]7O)[C@H](O)[C@H]6O)[C@H](O)C[C@]5(C)[C@H]4CC[C@]3(C)[C@H]1[C@@H]2C [Compound 5, digitonin, reference compound] | approximately 4 µM | 5.26 | inhibited the production of NO |  |  | cytotoxic effects in model immune cells (in words) (mouse peritoneal cells; [6]): strong cytotoxic effects; CC50 at 22 h [3, 7]: 5.83 µM
CC1CCC2(OC1)OC1CC3C4CC(O)C5CC(OC6OC(CO)C(OC7OC(CO)C(O)C(OC8OCC(O)C(O)C8O)C7OC7OC(CO)C(O)C(OC8OC(CO)C(O)C(O)C8O)C7O)C(O)C6O)C(O)CC5(C)C4CCC3(C)C1C2C (stereo not shown) [Compound 3] | approximately 4 µM |  | inhibited the production of NO | strong cytotoxic effects | 7.21 | 
C[C@@H]1CC[C@@]2(OC1)O[C@H]1C[C@H]3[C@@H]4CC=C5C[C@@H](O)CC[C@]5(C)[C@H]4CC[C@]3(C)[C@H]1[C@@H]2C [Compound 7, diosgenin] |  | < 4.00 |  |  |  | CC50 at 22 h [3, 7]: > 100 µM; inhibitory effects (in words) [2]: devoid of any inhibitory effects; cytotoxicity (in words) [4]: No changes in cytotoxicity
CC1CC[C@@]2(OC1)O[C@H]1C[C@H]3[C@@H]4C[C@@H](O)C5C[C@@H](O)[C@H](O)C[C@]5(C)[C@H]4CC[C@]3(C)[C@H]1[C@@H]2C (stereo partly drawn) [Compound 4, spirostan-2α, 3β, 6β–triol] |  |  |  |  | > 100 | cytotoxicity (in words) [5]: did not show cytotoxicity; inhibitory effects (in words) [2]: devoid of any inhibitory effects
C[C@@H]1CC[C@@]2(OC1)O[C@H]1CC3C4CCC5C[C@@H](O[C@@H]6O[C@H](CO)[C@H](O[C@@H]7O[C@H](CO)[C@@H](O)[C@H](O[C@@H]8OC[C@@H](O)[C@H](O)[C@H]8O)[C@H]7O[C@@H]7O[C@H](CO)[C@@H](O)[C@H](O)[C@H]7O)[C@H](O)[C@H]6O)[C@H](O)C[C@]5(C)C4CC[C@]3(C)C1[C@@H]2C (stereo partly shown) [Compound 2, 6-deoxy-aginoside] | approximately 4 µM |  | inhibited the production of NO | strong cytotoxic effects | 5.7 | 
C[C@@H]1CC[C@@]2(OC1)O[C@H]1CC3C4C[C@@H](O)C5C[C@@H](O[C@@H]6O[C@H](CO)[C@H](O[C@@H]7O[C@H](CO)[C@@H](O)[C@H](O[C@@H]8OC[C@@H](O)[C@H](O)[C@H]8O)[C@H]7O[C@@H]7O[C@H](CO)[C@@H](O)[C@H](O)[C@H]7O)[C@H](O)[C@H]6O)[C@H](O)C[C@]5(C)C4CC[C@]3(C)C1[C@@H]2C (stereo partly shown) [Compound 1, aginoside] | approximately 4 µM |  | inhibited the production of NO | strong cytotoxic effects | 11.1 | cytotoxicity IC50 [1]: 2.1 µg/mL
